# In the supplement of paper PMC10733146:
# Key:
# Assay in all cases: viability relative to DMSO control (fraction); higher = less drug effect (more viable cells)
# Conditions in all cases: 48 h
# [1] = test system: primary ALL patient cells (S088)
# Outline: (§1)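 Cells were incubated for 48 h at 37 °C and 5% CO2 in RPMI-1640 with penicillin/streptomycin, L-glutamine and human serum, at 4 × 10^4 cells per well in 384-well plates with compounds pre-plated at five concentrations, one well each. These were primary mononuclear tumour cells, fresh or cryopreserved, Ficoll-isolated from blood or bone marrow or obtained from processed lymph node. Viability values are CellTiter-Glo luminescence relative to the median of 16 inner DMSO wells.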
# [2] = test system: primary AML patient cells (S002)
# Outline: as §1
# [3] = test system: primary AML patient cells (S007)
# Outline: as §1
# [4] = test system: primary AML patient cells (S011)
# Outline: as §1
# [5] = test system: primary AML patient cells (S017)
# Outline: as §1
# [6] = test system: primary AML patient cells (S019)
# Outline: as §1
# [7] = test system: primary AML patient cells (S021)
# Outline: as §1
# [8] = test system: primary AML patient cells (S025)
# Outline: as §1
# [9] = test system: primary AML patient cells (S060)
# Outline: as §1
# [10] = test system: primary AML patient cells (S071)
# Outline: as §1
# [11] = test system: primary AML patient cells (S081)
# Outline: as §1
# [12] = test system: primary AML patient cells (S085)
# Outline: as §1
# [13] = test system: primary B-PLL patient cells (S016)
# Outline: as §1
# [14] = test system: primary BL patient cells (S005)
# Outline: as §1
# [15] = test system: primary CLL patient cells (S043)
# Outline: as §1
# [16] = test system: primary DLBCL patient cells (S049)
# Outline: as §1
# [17] = test system: primary DLBCL patient cells (S076)
# Outline: as §1
# [18] = test system: primary T-NHL patient cells (S058)
# Outline: as §1
smiles,measurement,setting,value
Cc1cc(Nc2ncc(Cl)c(Nc3ccccc3S(=O)(=O)C(C)C)n2)c(OC(C)C)cc1C1CCNCC1 [Ceritinib],viability,[1]; 0.024 µM,0.923
same,viability,[1]; 0.12 µM,0.788
same,viability,[1]; 0.6 µM,0.558
same,viability,[1]; 3 µM,0.35
same,viability,[1]; 15 µM,0.0155
same,viability,[2]; 0.024 µM,1.12
same,viability,[2]; 0.12 µM,0.926
same,viability,[2]; 0.6 µM,0.861
same,viability,[2]; 3 µM,0.616
same,viability,[2]; 15 µM,0.0299
same,viability,[3]; 0.024 µM,0.837
same,viability,[3]; 0.12 µM,0.718
same,viability,[3]; 0.6 µM,0.559
same,viability,[3]; 3 µM,0.173
same,viability,[3]; 15 µM,0.0192
same,viability,[4]; 0.024 µM,0.846
same,viability,[4]; 0.12 µM,0.942
same,viability,[4]; 0.6 µM,0.631
same,viability,[4]; 3 µM,0.182
same,viability,[4]; 15 µM,0.0175
same,viability,[5]; 0.024 µM,0.958
same,viability,[5]; 0.12 µM,0.963
same,viability,[5]; 0.6 µM,0.995
same,viability,[5]; 3 µM,0.773
same,viability,[5]; 15 µM,0.0225
same,viability,[6]; 0.024 µM,1.08
same,viability,[6]; 0.12 µM,1
same,viability,[6]; 0.6 µM,1.03
same,viability,[6]; 3 µM,0.773
same,viability,[6]; 15 µM,0.0262
same,viability,[7]; 0.024 µM,1
same,viability,[7]; 0.12 µM,0.934
same,viability,[7]; 0.6 µM,0.833
same,viability,[7]; 3 µM,0.572
same,viability,[7]; 15 µM,0.03
same,viability,[8]; 0.024 µM,0.985
same,viability,[8]; 0.12 µM,0.874
same,viability,[8]; 0.6 µM,0.838
same,viability,[8]; 3 µM,0.508
same,viability,[8]; 15 µM,0.0191
same,viability,[9]; 0.024 µM,1
same,viability,[9]; 0.12 µM,0.981
same,viability,[9]; 0.6 µM,1.03
same,viability,[9]; 3 µM,0.947
same,viability,[9]; 15 µM,0.0203
same,viability,[10]; 0.024 µM,0.865
same,viability,[10]; 0.12 µM,0.781
same,viability,[10]; 0.6 µM,0.476
same,viability,[10]; 3 µM,0.174
same,viability,[10]; 15 µM,0.0165
same,viability,[11]; 0.024 µM,0.963
same,viability,[11]; 0.12 µM,0.957
same,viability,[11]; 0.6 µM,0.967
same,viability,[11]; 3 µM,0.982
same,viability,[11]; 15 µM,0.0181
same,viability,[12]; 0.024 µM,1.02
same,viability,[12]; 0.12 µM,0.875
same,viability,[12]; 0.6 µM,0.62
same,viability,[12]; 3 µM,0.49
same,viability,[12]; 15 µM,0.0171
same,viability,[13]; 0.024 µM,0.945
same,viability,[13]; 0.12 µM,0.832
same,viability,[13]; 0.6 µM,0.743
same,viability,[13]; 3 µM,0.555
same,viability,[13]; 15 µM,0.0198
same,viability,[14]; 0.024 µM,1.05
same,viability,[14]; 0.12 µM,0.992
same,viability,[14]; 0.6 µM,0.944
same,viability,[14]; 3 µM,0.669
same,viability,[14]; 15 µM,0.0199
same,viability,[15]; 0.024 µM,1.05
same,viability,[15]; 0.12 µM,0.943
same,viability,[15]; 0.6 µM,0.928
same,viability,[15]; 3 µM,0.684
same,viability,[15]; 15 µM,0.0198
same,viability,[16]; 0.024 µM,0.897
same,viability,[16]; 0.12 µM,0.84
same,viability,[16]; 0.6 µM,0.771
same,viability,[16]; 3 µM,0.4
same,viability,[16]; 15 µM,0.0197
same,viability,[17]; 0.024 µM,1.02
same,viability,[17]; 0.12 µM,0.996
same,viability,[17]; 0.6 µM,0.964
same,viability,[17]; 3 µM,0.721
same,viability,[17]; 15 µM,0.0181
same,viability,[18]; 0.024 µM,1.03
same,viability,[18]; 0.12 µM,0.924
same,viability,[18]; 0.6 µM,0.961
same,viability,[18]; 3 µM,0.626
same,viability,[18]; 15 µM,0.023
